This is an account of results in patent publication US5527821A, “Pharmacologically active alpha-[tertiary-aminomethyl]-benzenemethanol derivatives” (Pharmacia AB, priority 1992, dated 1996).

Structures are written as SMILES. pEC50: −log10 of the molar value. Counter-ions that a name gives are not always drawn.

Series [1] relates to isolated rabbit portal vein. The series is described as follows: Effects on the isolated rabbit portal vein (contraction, in vitro). The following applies: Oryctolagus cuniculus. The format is cell-based. The procedure: (§1) Female rabbits weighing 2.5-3.0 kg were sacrificed and exsanguinated. The urethra and portal vein were dissected out and suspended in organ baths containing oxygenated Krebs solution at 37° C. Two rings of urethra (4 mm broad) and two longitudinal strips of the portal vein were used. The basal tension was adjusted to about 10 mN after an equilibration time of 60 minutes. Isometric tension was recorded via a force transducer (Statham FT03) and registered on a Grass polygraph model 7.
(§2) Submaximum concentrations of noradrenaline (6×10^-5 M) were used to achieve reference contractions.
(§3) The test substances were added cumulatively (12 concentrations) until a maximum response was obtained.

Series [2] has as its system urethra (urethral pressure in anaesthetized rabbits). The series is described as follows: Effects on urethral pressure in anaesthetized rabbits. Format: in vivo, rabbit. The following applies: Oryctolagus cuniculus, iv, read-out: Max. urethral pressure in vivo, in % of NA-max, anaesthetized rabbits, i.v. injections of different doses; reference noradrenaline 0.025 μg/kg i.v. The protocol:
(§4) Rabbits, weighing 2.5-3 kg, were anaesthetized by pentobarbitone (initially 40 mg/kg i.v. and for maintenance anaesthesia 10 mg/kg, h). For recording of urethral pressure a catheter (Dog cath nr 6.) was inserted into the urethra and placed at the point of highest pressure. The basal urethral pressure was approximately 10 cm H2 O. The blood pressure was recorded via a catheter (PP50) inserted into a femoral artery. Substances were injected intravenously into a catheter in a femoral vein. The continuous intravenous infusion of pentobarbitone kept the depth of anesthesia at a constant level through the experiment. Three consecutive noradrenaline injections (0.025 μg/kg i.v.) were given initially to constitute reference responses. Repeated intravenous injections of different doses of the same test compound were given in a randomized manner. […] In other pharmacological experiments (not described here) it was also shown that the described compounds had no or minimal effect on other organs, such as for example the urinary bladder, central nervous system, intestine, vas deferens etc.

The test system of series [3] is blood pressure in anaesthetized rabbits. The series is described as follows: Effects on blood pressure in anaesthetized rabbits. Format: in vivo, rabbit. The following applies: i.v. injections of different doses, femoral artery catheter. The protocol:
as §4

Another series concerns isolated rabbit urethra. Put plainly: Effects on the isolated rabbit urethra (contraction, in vitro). The following applies: Oryctolagus cuniculus, Krebs solution, 37° C. Format: cell-based. The procedure: as §1, §2, §3

As to `CCN(CC)CC(O)c1cccc(OC)c1OC(C)C` (stereo not drawn) [Compound 3, α-[(Diethylamino)methyl]-3-methoxy-2-(1-methylethoxy)-benzenemethanol, hydrogen oxalate], the pEC50 was 3.89 in series [1] (read-out: Portal vein, in vitro: EC50 value (effective concentration inducing a half maximum contraction)) and 5.18 in the series with isolated rabbit urethra (read-out: Urethra, in vitro: EC50-value (effective concentration inducing a half maximum contraction), female rabbit urethra rings, cumulative addition). In addition, the Emax came to 11% in series [1] (read-out: Portal vein, in vitro: Max. contraction, female rabbit portal vein longitudinal strips, cumulative addition (12 concentrations), reference noradrenaline 6×10^-5 M, Krebs solution, 37° C.); 131% in series [2]; 105% in the series with isolated rabbit urethra (read-out: Urethra, in vitro: Max. contraction, female rabbit urethra rings, cumulative addition (12 concentrations), reference noradrenaline 6×10^-5 M). Further, the “Blood pressure; max change, in %” value in series [3] is reported as -2%.
